Assay [1] deals with purified human Factor XIa (Homo sapiens (Human), UniProt P03951). Nature of the assay: Factor XIa enzyme inhibition assay (chromogenic substrate S-2366).
In assay [2] the target is purified human plasma kallikrein (Homo sapiens (Human), UniProt P03952). Nature of the assay: Plasma kallikrein enzyme inhibition assay (chromogenic substrate S-2302). The class given is biochemical.
The mark [3] stands for this setting: read-out: Factor XIa Ki, measured at 25° C.
Where [4] appears, read: measured at 25° C. (no asterisk).

The structures appear in SMILES notation. Structures can show the parent of a compound that is named as a salt. Where two headings read alike, the source gives them in different places. A value given as a limit tells only on which side of the number the result lay.

Sequence of purified human Factor XIa (P03951 388-625): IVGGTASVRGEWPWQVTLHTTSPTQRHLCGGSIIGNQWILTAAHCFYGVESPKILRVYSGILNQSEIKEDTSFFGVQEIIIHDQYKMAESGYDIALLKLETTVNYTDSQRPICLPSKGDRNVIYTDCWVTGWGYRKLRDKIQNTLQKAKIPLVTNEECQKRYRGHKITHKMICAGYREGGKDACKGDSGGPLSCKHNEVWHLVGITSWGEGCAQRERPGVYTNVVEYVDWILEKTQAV
Sequence of purified human Factor XIa (P03951 19-387 partner): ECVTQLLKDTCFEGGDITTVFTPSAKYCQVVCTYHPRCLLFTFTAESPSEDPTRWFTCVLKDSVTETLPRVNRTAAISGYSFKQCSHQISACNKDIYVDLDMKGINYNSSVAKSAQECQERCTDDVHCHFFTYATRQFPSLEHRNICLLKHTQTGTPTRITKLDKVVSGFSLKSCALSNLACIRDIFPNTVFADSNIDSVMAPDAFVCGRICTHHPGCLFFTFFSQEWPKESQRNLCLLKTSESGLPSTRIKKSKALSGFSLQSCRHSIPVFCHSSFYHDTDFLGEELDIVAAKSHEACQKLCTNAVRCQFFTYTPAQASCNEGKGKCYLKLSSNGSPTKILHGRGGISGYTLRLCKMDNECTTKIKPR
Sequence of purified human plasma kallikrein (P03952 391-638): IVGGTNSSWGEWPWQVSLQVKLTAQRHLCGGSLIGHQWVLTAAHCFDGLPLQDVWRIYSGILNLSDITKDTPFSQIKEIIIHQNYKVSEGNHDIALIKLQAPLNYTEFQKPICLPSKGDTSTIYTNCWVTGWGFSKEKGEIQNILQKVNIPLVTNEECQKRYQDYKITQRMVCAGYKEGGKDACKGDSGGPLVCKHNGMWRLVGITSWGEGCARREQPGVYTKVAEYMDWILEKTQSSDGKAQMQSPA
Sequence of purified human plasma kallikrein (P03952 20-390 partner): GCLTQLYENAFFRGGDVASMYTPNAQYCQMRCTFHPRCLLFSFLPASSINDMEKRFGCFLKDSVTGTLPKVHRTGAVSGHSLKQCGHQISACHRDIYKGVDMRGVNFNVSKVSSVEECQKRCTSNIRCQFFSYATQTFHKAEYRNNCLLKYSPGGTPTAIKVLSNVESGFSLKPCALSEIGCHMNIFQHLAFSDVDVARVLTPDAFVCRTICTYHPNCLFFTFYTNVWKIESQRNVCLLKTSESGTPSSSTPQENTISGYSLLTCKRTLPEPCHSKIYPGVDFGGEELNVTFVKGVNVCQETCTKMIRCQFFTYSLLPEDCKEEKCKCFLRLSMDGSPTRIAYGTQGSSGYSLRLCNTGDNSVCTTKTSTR

A word on the Ki: it is a dissociation constant, usually derived from enzyme kinetics or from competition with a known ligand. Turning to `CN(C)C(=O)C1CCN(c2cccc3c2CCN(C(=O)C2CC(c4cccc(Cl)c4F)=NO2)C3C(=O)Nc2ccc(C(=O)O)cc2)CC1` (single isomer, unassigned) [Example 278, 4-(2-(3-(3-chloro-2-fluorophenyl)-4,5-dihydroisoxazole-5-carbonyl)-5-(4-(dimethylcarbamoyl)piperidin-1-yl)-1,2,3,4-tetrahydroisoquinoline-1-carboxamido)benzoic acid, TFA salt], the inhibition constant (Ki) in assay [1] (setting [3]) is below 5 nM; in assay [2] (measured at 25° C. (no asterisk), TFA salt) it was 1.98 nM.
For the molecule `CNC(=O)c1ccc(-c2cccc3c2CCN(C(=O)c2cn(-c4cccc(Cl)c4F)nn2)[C@H]3C(=O)Nc2ccc(C(=O)O)cc2)cn1` [Example 45, (R)-4-(2-(1-(3-Chloro-2-fluorophenyl)-1H-1,2,3-triazole-4-carbonyl)-5-(6-(methylcarbamoyl)pyridin-3-yl)-1,2,3,4-tetrahydroisoquinoline-1-carboxamido)benzoic acid, TFA salt], the Ki in assay [1] (setting [3]) came out at 20.6 nM; in assay [2] (setting [4]), 364 nM.
Taken in the same sequence, the figures for `CN1CCN(c2cccc3c2CCN(C(=O)c2cc(-c4cccc(Cl)c4)no2)C3C(=O)Nc2ccc(C(=O)O)cc2)CC1` (stereo not drawn) [Example 198, 4-(2-(3-(3-chlorophenyl)isoxazole-5-carbonyl)-5-(4-methylpiperazin-1-yl)-1,2,3,4-tetrahydroisoquinoline-1-carboxamido)benzoic acid, 2 TFA salt] were 49.5 nM and 122 nM.
For `O=C(Nc1ccc(CO)cc1)C1c2cccc(Br)c2CCN1C(=O)c1cn(-c2cccc(Cl)c2F)nn1` (stereo not drawn) [Example 120, 5-Bromo-2-(1-(3-chloro-2-fluorophenyl)-1H-1,2,3-triazole-4-carbonyl)-N-(4-(hydroxymethyl)phenyl)-1,2,3,4-tetrahydroisoquinoline-1-carboxamide], the Ki amounted to 3940 nM in assay [1] (setting [3]) and 517 nM in assay [2] (measured at 37° C. (*)).
For the molecule `CN(C)C1CCN(c2cccc3c2CCN(C(=O)c2cnn(-c4cccc(Cl)c4F)c2)C3C(=O)Nc2ccc(-c3ncco3)cc2)CC1` (stereo not drawn) [Example 93, 2-(1-(3-Chloro-2-fluorophenyl)-1H-pyrazole-4-carbonyl)-5-(4-(dimethylamino)piperidin-1-yl)-N-(4-(oxazol-2-yl)phenyl)-1,2,3,4-tetrahydroisoquinoline-1-carboxamide, bis-TFA salt], the Ki came to 6.65 nM in assay [1] (setting [3]) and 9.65 nM in assay [2] (setting [4]).
Taken in the same sequence, the figures for `O=C(O)c1ccc(NC(=O)C2c3cccc(N4CCCCC4=O)c3CCN2C(=O)c2cn(-c3cccc(Cl)c3F)nn2)cc1` (stereo not drawn) [Example 81, 4-(2-(1-(3-chloro-2-fluorophenyl)-1H-1,2,3-triazole-4-carbonyl)-5-(2-oxopiperidin-1-yl)-1,2,3,4-tetrahydroisoquinoline-1-carboxamido)benzoic acid] were below 5 nM and 20.7 nM.
In the case of `CN(C)C1CCN(c2cccc3c2CCN(C(=O)c2cnn(-c4cccc(Cl)c4F)c2)C3C(=O)Nc2ccc(C(=O)O)cc2)CC1` (stereo not drawn) [Example 50, 4-(2-(1-(3-chloro-2-fluorophenyl)-1H-pyrazole-4-carbonyl)-5-(4-(dimethylamino)piperidin-1-yl)-1,2,3,4-tetrahydroisoquinoline-1-carboxamido)benzoic acid, bis-TFA salt], the Ki is below 5 nM in assay [1] (setting [3]) and 4.94 nM in assay [2] (setting [4]).
Taken in the same sequence, the figures for `COC1CN(c2cccc3c2CCN(C(=O)c2cn(-c4cccc(Cl)c4F)nn2)C3C(=O)Nc2ccc(C(=O)O)cc2)C1` (stereo not drawn) [Example 83, 4-(2-(1-(3-chloro-2-fluorophenyl)-1H-1,2,3-triazole-4-carbonyl)-5-(3-methoxyazetidin-1-yl)-1,2,3,4-tetrahydroisoquinoline-1-carboxamido)benzoic acid, TFA salt] were below 5 nM and 12.1 nM.
Taken in the same sequence, the figures for `O=C1CCC2(CCN(c3cccc4c3CCN(C(=O)c3cn(-c5cccc(Cl)c5F)cn3)C4C(=O)Nc3ccc(C(=O)O)cc3)CC2)O1` (stereo not drawn) [Example 77, 4-(2-(1-(3-chloro-2-fluorophenyl)-1H-imidazole-4-carbonyl)-5-(2-oxo-1-oxa-8-azaspiro[4.5]decan-8-yl)-1,2,3,4-tetrahydroisoquinoline-1-carboxamido)benzoic acid, TFA salt] were below 5 nM and 7.96 nM.
`CNC(=O)c1cncc(-c2cccc3c2CCN(C(=O)c2cn(-c4cccc(Cl)c4F)nn2)C3C(=O)Nc2ccc(C(=O)O)cc2)c1` (stereo not drawn) [Example 37, 4-(2-(1-(3-chloro-2-fluorophenyl)-1H-1,2,3-triazole-4-carbonyl)-5-(5-(methylcarbamoyl)pyridin-3-yl)-1,2,3,4-tetrahydroisoquinoline-1-carboxamido)benzoic acid, TFA salt]: the values for the Ki in assay [1] (setting [3]) and in assay [2] (setting [4]) were below 5 nM and 12.9 nM, respectively.
For `CN1CCN(c2cccc3c2CCN(C(=O)c2cn(-c4cccc(Cl)c4F)nn2)[C@H]3C(=O)Nc2ccc(C(=O)O)cc2)C(=O)C1` [Example 79, (R)-4-(2-(1-(3-chloro-2-fluorophenyl)-1H-1,2,3-triazole-4-carbonyl)-5-(4-methyl-2-oxopiperazin-1-yl)-1,2,3,4-tetrahydroisoquinoline-1-carboxamido)benzoic acid, TFA salt], in that order: 114 nM and 719 nM.
On to `CN(C)C1CCN(c2cccc3c2CCN(C(=O)c2cn(-c4cccc(Cl)c4F)nn2)[C@H]3C(=O)Nc2ccc(C(N)=O)cc2)CC1` [Example 100, (R)-N-(4-Carbamoylphenyl)-2-(1-(3-chloro-2-fluorophenyl)-1H-1,2,3-triazole-4-carbonyl)-5-(4-(dimethylamino)piperidin-1-yl)-1,2,3,4-tetrahydroisoquinoline-1-carboxamide, bis-TFA salt], for which the Ki worked out at 289 nM in assay [1] (setting [3]) and 494 nM in assay [2] (setting [4]).
Turning to `COC1CCN(c2cccc3c2CCN(C(=O)c2cnn(-c4cccc(Cl)c4F)c2)C3C(=O)Nc2ccc(C(=O)O)cc2)CC1` (racemic) [Example 252, 4-(2-(1-(3-chloro-2-fluorophenyl)-1H-pyrazole-4-carbonyl)-5-(4-methoxypiperidin-1-yl)-1,2,3,4-tetrahydroisoquinoline-1-carboxamido)benzoic acid, TFA salt], the Ki in assay [1] was below 5 nM; in assay [2] (setting [4]) it was 42.8 nM.
Take `COC1CCN(c2cccc3c2CCN(C(=O)c2cnn(-c4ccnc(C)c4)c2)C3C(=O)Nc2ccc(C(=O)O)cc2)CC1` (stereo not drawn) [Example 327, 4-(5-(4-Methoxypiperidin-1-yl)-2-(1-(2-methylpyridin-4-yl)-1H-pyrazole-4-carbonyl)-1,2,3,4-tetrahydroisoquinoline-1-carboxamido)benzoic acid, TFA salt]: the Ki is 816 nM in assay [1] (setting [3]) and above 6000 nM in assay [2] (measured at 37° C. (*)).
As to `O=C(O)c1ccc(NC(=O)C2c3cccc(N4CCCCC4)c3CCN2C(=O)c2cn(-c3cccc(Cl)c3F)nn2)cc1` (stereo not drawn) [Example 78, 4-(2-(1-(3-chloro-2-fluorophenyl)-1H-1,2,3-triazole-4-carbonyl)-5-(piperidin-1-yl)-1,2,3,4-tetrahydroisoquinoline-1-carboxamido)benzoic acid, TFA salt], the Ki was 9.16 nM in assay [1] (setting [3]) and 36.1 nM in assay [2] (setting [4]).

The values are drawn from patent US9738655B2, “Tetrahydroisoquinolines containing substituted azoles as factor XIa inhibitors” (BRISTOL-MYERS SQUIBB COMPANY, priority 2013, dated 2017).
